In patent publication US10245264B2, “Substituted imidazo[1,2-a]pyrazines as soluble guanylate cyclase activators” (Merck Sharp & Dohme Corp., priority 2015, dated 2019):

Biological target: T1, sGC α1/β1 heterodimer stably expressed in CHO-K1 cells (CHO-K1/sGC) (Homo sapiens, UniProt Q02108+Q02153)
T1 construct: expressed in transfected cells
T1 sequence (Q02108 1-690): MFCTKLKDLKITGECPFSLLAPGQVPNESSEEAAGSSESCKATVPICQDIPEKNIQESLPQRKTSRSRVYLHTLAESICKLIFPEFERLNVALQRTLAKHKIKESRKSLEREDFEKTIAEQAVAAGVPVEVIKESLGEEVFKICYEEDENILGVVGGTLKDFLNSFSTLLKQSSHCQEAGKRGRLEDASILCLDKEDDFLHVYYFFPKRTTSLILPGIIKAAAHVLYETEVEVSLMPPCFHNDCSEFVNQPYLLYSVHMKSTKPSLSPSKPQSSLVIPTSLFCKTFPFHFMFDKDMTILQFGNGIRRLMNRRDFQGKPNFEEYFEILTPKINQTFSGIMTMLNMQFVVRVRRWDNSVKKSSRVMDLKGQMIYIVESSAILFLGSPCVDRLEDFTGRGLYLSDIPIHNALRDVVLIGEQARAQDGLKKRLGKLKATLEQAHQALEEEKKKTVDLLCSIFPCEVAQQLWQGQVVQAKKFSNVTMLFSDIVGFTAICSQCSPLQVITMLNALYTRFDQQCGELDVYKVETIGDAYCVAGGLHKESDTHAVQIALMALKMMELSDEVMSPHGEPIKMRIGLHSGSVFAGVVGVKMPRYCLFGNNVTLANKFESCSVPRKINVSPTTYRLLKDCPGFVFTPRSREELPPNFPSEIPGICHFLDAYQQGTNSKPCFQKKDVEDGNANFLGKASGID
T1 sequence (Q02153 1-619): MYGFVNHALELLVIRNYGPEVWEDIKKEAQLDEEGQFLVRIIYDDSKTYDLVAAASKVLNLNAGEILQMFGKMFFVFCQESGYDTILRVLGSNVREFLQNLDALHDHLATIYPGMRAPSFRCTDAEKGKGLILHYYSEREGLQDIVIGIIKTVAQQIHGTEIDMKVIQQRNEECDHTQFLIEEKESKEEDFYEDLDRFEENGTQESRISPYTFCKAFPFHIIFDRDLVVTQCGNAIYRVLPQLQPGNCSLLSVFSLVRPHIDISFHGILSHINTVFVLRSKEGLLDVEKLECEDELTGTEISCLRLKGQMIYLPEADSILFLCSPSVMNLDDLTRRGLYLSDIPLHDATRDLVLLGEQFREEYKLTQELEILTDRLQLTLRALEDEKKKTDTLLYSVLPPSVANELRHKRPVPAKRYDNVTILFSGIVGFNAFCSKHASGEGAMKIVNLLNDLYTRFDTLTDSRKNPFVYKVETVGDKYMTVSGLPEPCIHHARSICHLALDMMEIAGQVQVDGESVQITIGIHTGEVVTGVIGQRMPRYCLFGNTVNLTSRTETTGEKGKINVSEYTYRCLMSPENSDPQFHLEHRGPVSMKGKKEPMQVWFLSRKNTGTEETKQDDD
Assay: Cell-based sGC functional assay (CASA assay), cGMP generation by HTRF
Settings: for Emax: CHO-K1, maximum cGMP production of Compound A set to 100% activation, read-out: % Act. (percent activation relative to Compound A); for EC50: CHO-K1/sGC cells, 1 hr at 37° C., 4P fit, presence or absence of DETA-NO not given, read-out: IP (nM) (inflection point)
From the text: Biological Assay 1: Cell-Based sGC Functional Assay (CASA Assay) Rationale
sGC is a heme-containing enzyme that converts GTP to secondary messenger cGMP. Increases in cGMP levels affect several physiological processes including vasorelaxation through multiple downstream pathways. […] Heme-dependent activators (HDAs) preferentially activate sGC containing a ferrous heme group. To determine the effect of sGC activators on enzyme activity, the CASA assay was developed to monitor the generation of cGMP in a cell line that stably expresses the heterodimeric sGC protein.
A CHO-K1 cell line stably expressing the sGC α1/β1 heterodimer was generated using a standard transfection protocol. CHO-K1 cells were transfected with plasmids pIREShyghsGCα1 and pIRESneo-hsGCβ1 simultaneously using FUGENE reagent. Clones that stably express both subunits were selected with hygromycin and neomycin for ˜2 weeks. Clone #7 was chosen for the assay and was designated CHO-K1/sGC. CHO-K1/sGC cells were maintained in F-K12 medium containing 10% heat-inactivated Fetal Bovine Serum (FBS), 100 μg/mL penicillin/streptomycin, 0.5 mg/mL hygromycin and 0.25 mg/mL G418. The cells were then cryopreserved in LN2. On the day of the assay, cells were thawed and resuspended in EBSS Assay Buffer (Sigma, E3024) supplemented with 5 mM MgCl2, 10 mM HEPES (4-(2-hydroxyethyl)piperazine-1-ethanesulfonic acid) and 0.05% BSA (bovine serum albumin) (EAB) and cell density was then adjusted to 4×10^5/mL with EAB. IBMX (3-isobutyl-1-methylxanthin, 0.5 mM) was added to inhibit degradation of cGMP. Compounds were diluted from DMSO stock solutions and added to the assay at a final DMSO concentration of 2.5%. Cells were incubated with compounds in the presence and absence of 1 μM of Diethylenetriamine/nitric oxide adduct (DETA-NO; Sigma, 17018) for 1 hr at 37° C. At the end of the incubation period, the reaction was terminated and the cells were lysed with the detection reagents from Cisbio Kits. The level of intracellular cGMP was determined using an HTRF-based assay kit (CisBio, 62GM2PEC), which detects the displacement of a fluorescence labeled cGMP from its specific antibody. The cGMP produced by test compounds was directly compared to the maximum cGMP production (this value was set to equal 100% activation.) of the published sGC-HDA Compound A:
[drawing 101] (Example 1 in WO 2010/065275, published Jun. 10, 2010). The test compounds' activities were then expressed as a percentage of Compound A, the standard in every experiment. This percent activation was calculated either in the presence or absence of DETA-NO which was then plotted. IP and maximum fold induction was derived using ADA analysis software for 4P fit.
The compounds in the Examples of the instant invention had inflection points (IP) less than or equal to 10 μM and many had IPs less than or equal to about 1 μM.

Q: Which Emax does the source give for `CC1(c2ccccc2)C(=O)Nc2nc(-c3cn4ccnc4c(Oc4c(F)ccc(F)c4F)n3)nc(N)c21` (centres unmarked) [Example 7B, 4-amino-5-methyl-5-phenyl-2-[8-(2,3,6-trifluorophenoxy)imidazo[1,2-a]pyrazin-6-yl]-5,7-dihydro-6H-pyrrolo[2,3-d] pyrimidin-6-one] here?
A: Its Emax is 112%.

Q: And the EC50?
A: The EC50 was 1020 nM.

Q: Which results are given for `CC1(c2ccccc2)C(=O)Nc2nc(-c3cn4ccnc4c(Oc4cccc(F)c4)n3)nc(N)c21` (centres unmarked) [Example 8B, 4-amino-2-[8-(3-fluorophenoxy)imidazo[1,2-a]pyrazin-6-yl]-5-methyl-5-phenyl-5,7-dihydro-6H-pyrrolo[2,3-d] pyrimidin-6-one]?
A: Emax: 110%; EC50: 22 nM

Q: What does the source list for `CC1(c2ccc(F)cc2)C(=O)Nc2nc(-c3cn4ccnc4c(Oc4ccccc4)n3)nc(N)c21` (centres unmarked) [Example 9A, 4-amino-5-(4-fluorophenyl)-5-methyl-2-(8-phenoxyimidazo [1,2-a]pyrazin-6-yl)-5,7-dihydro-6H-pyrrolo[2,3-d] pyrimidin-6-one]?
A: Emax: 124%; EC50: 28 nM

Q: Which results are given for `CC1(c2ccccc2)C(=O)Nc2nc(-c3cn4ccnc4c(Oc4ccc(F)c(F)c4F)n3)nc(N)c21` (centres unmarked) [Example 11B, 4-amino-5-methyl-5-phenyl-2-[8-(2,3,4-trifluoro-phenoxy)imidazo [1,2-a]pyrazin-6-yl]-5,7-dihydro-6H-pyrrolo[2,3-d] pyrimidin-6-one]?
A: Emax: 104%; EC50: 138 nM

Q: With `CC1(c2ccccc2)C(=O)Nc2nc(-c3cn4ccnc4c(Oc4cc(F)cc(F)c4F)n3)nc(N)c21` (centres unmarked) [Example 12B, 4-amino-5-methyl-5-phenyl-2-[8-(2,3,5-trifluoro-phenoxy)imidazo [1,2-a]pyrazin-6-yl]-5,7-dihydro-6H-pyrrolo[2,3-d] pyrimidin-6-one] as the compound, how does the Emax read?
A: The Emax was 99%.

Q: What about the EC50 of the same compound?
A: The EC50 was 47 nM.

Q: `CC1(c2ccccc2)C(=O)Nc2nc(-c3cn4ccnc4c(Oc4cccc(F)c4F)n3)nc(N)c21` (centres unmarked) [Example 13B, 4-amino-2-[8-(2,3-difluoro-phenoxy)imidazo [1,2-a]pyrazin-6-yl]-5-methyl-5-phenyl-5,7-dihydro-6H-pyrrolo[2,3-d] pyrimidin-6-one] was tested. Which Emax did it give?
A: The Emax was 109%.

Q: And the EC50?
A: Its EC50 is 14 nM.

Q: `Nc1nc(-c2cn3ccnc3c(OCC(F)(F)C(F)(F)F)n2)nc2c1C(c1ccc(F)cc1)(C1CC1)C(=O)N2` (centres unmarked) [Example 14B, 4-amino-5-cyclopropyl-5-(4-fluorophenyl)-2-[8-(2,2,3,3,3-pentafluoropropoxy)imidazo[1,2-a]pyrazin-6-yl]-5,7-dihydro-6H-pyrrolo [2,3-d]pyrimidin-6-one] was tested. Which Emax did it give?
A: The Emax was 96%.

Q: What about the EC50 of the same compound?
A: The EC50 was 534 nM.

Q: With `CC1(c2ccc(F)cc2)C(=O)Nc2nc(-c3cn4ccnc4c(Oc4cccc(F)c4F)n3)nc(N)c21` (centres unmarked) [Example 15A, 4-amino-2-[8-(2,3-difluorophenoxy)imidazo[1,2-a]pyrazin-6-yl]-5-(4-fluorophenyl)-5-methyl-5,7-dihydro-6H-pyrrolo[2,3-d] pyrimidin-6-one] as the compound, how does the Emax read?
A: The Emax was 104%.

Q: And the EC50?
A: Its EC50 is 23 nM.

Q: `CC1(c2ccc(F)cc2)C(=O)Nc2nc(-c3cn4ccnc4c(Oc4ccc(F)c(F)c4F)n3)nc(N)c21` (centres unmarked) [Example 16A, 4-amino-5-(4-fluorophenyl)-5-methyl-2-[8-(2,3,4-trifluorophenoxy)imidazo[1,2-a]pyrazin-6-yl]-5,7-dihydro-6H-pyrrolo [2,3-d]pyrimidin-6-one] was tested. Which Emax did it give?
A: Its Emax is 89%.

Q: And the EC50?
A: Its EC50 is 37 nM.

Q: For `CC1(c2ccc(F)cc2)C(=O)Nc2nc(-c3cn4ccnc4c(Oc4cc(F)cc(F)c4F)n3)nc(N)c21` (centres unmarked) [Example 17A, 4-amino-5-(4-fluorophenyl)-5-methyl-2-[8-(2,3,5-trifluorophenoxy)imidazo[1,2-a]pyrazin-6-yl]-5,7-dihydro-6H-pyrrolo [2,3-d]pyrimidin-6-one], which Emax is on record?
A: The Emax was 100%.

Q: And the EC50?
A: Its EC50 is 17 nM.

Q: Which Emax does the source give for `CC1(c2ccc(F)cc2)C(=O)Nc2nc(-c3cn4ccnc4c(Oc4ccc(F)c(F)c4)n3)nc(N)c21` (centres unmarked) [Example 18A, 4-amino-2-[8-(3,4-difluorophenoxy)imidazo[1,2-a]pyrazin-6-yl]-5-(4-fluorophenyl)-5-methyl-5,7-dihydro-6H-pyrrolo[2,3-d] pyrimidin-6-one] here?
A: Its Emax is 98%.

Q: What about the EC50 of the same compound?
A: The EC50 was 10 nM.

Q: For `CC1(c2ccc(F)cc2)C(=O)Nc2nc(-c3cn4ccnc4c(Oc4ccc(F)cc4F)n3)nc(N)c21` (centres unmarked) [Example 19A, 4-amino-2-[8-(2,4-difluorophenoxy)imidazo[1,2-a]pyrazin-6-yl]-5-(4-fluorophenyl)-5-methyl-5,7-dihydro-6H-pyrrolo[2,3-d] pyrimidin-6-one], which Emax is on record?
A: The Emax was 109%.

Q: What about the EC50 of the same compound?
A: The EC50 was 74 nM.

Q: With `CC1(c2ccc(F)cc2)C(=O)Nc2nc(-c3cn4ccnc4c(Oc4ccc(F)cc4)n3)nc(N)c21` (centres unmarked) [Example 20A, 4-amino-2-[8-(4-fluorophenoxy)imidazo[1,2-a]pyrazin-6-yl]-5-(4-fluorophenyl)-5-methyl-5,7-dihydro-6H-pyrrolo[2,3-d] pyrimidin-6-one] as the compound, how does the Emax read?
A: Its Emax is 109%.

Q: What about the EC50 of the same compound?
A: The EC50 was 42 nM.

Q: `CC1(c2ccc(F)cc2)C(=O)Nc2nc(-c3cn4ccnc4c(Oc4cncc(C(F)(F)F)c4)n3)nc(N)c21` (centres unmarked) [Example 21A, 4-amino-5-(4-fluorophenyl)-5-methyl-2-(8-{[5-(trifluoromethyl)pyridin-3-yl]oxy}imidazo[1,2-a]pyrazin-6-yl)-5,7-dihydro-6H-pyrrolo[2,3-d] pyrimidin-6-one] was tested. Which Emax did it give?
A: Its Emax is 137%.

Q: What about the EC50 of the same compound?
A: The EC50 was 1060 nM.

Q: How did the Emax turn out when `CC1(c2ccc(F)cc2)C(=O)Nc2nc(-c3cn4ccnc4c(OC4CCCCC4)n3)nc(N)c21` (centres unmarked) [Example 22A, 4-amino-2-[8-(cyclohexyloxy)imidazo[1,2-a]pyrazin-6-yl]-5-(4-fluorophenyl)-5-methyl-5,7-dihydro-6H-pyrrolo[2,3-d] pyrimidin-6-one] was run?
A: The Emax was 107%.

Q: And the EC50?
A: The EC50 was 171 nM.

Q: Which results are given for `CC1(c2ccc(F)cc2)C(=O)Nc2nc(-c3cn4ccnc4c(Oc4cc(F)cc(F)c4)n3)nc(N)c21` (centres unmarked) [Example 23A, 4-amino-2-[8-(3,5-difluorophenoxy)imidazo[1,2-a]pyrazin-6-yl]-5-(4-fluorophenyl)-5-methyl-5,7-dihydro-6H-pyrrolo[2,3-d] pyrimidin-6-one]?
A: Emax: 100%; EC50: 16 nM
